Data as given in patent US20030092613A1, “Alpha7 nicotinic receptor peptides as ligands for beta amyloid peptides” (priority 2000, published 2003).
Where two headings read alike, the source gives them in different places.

Columns and labels:
Biotin-huma7-5 [1] = tested on: Biotin-huma7-5; parameters: species or system human; details: read-out: IC50, 125I-α-BTX binding to Biotin-huma7-5
Biotin-huma7-5 [2] = test: Fluo-β-amyloid1-42 binding assay to Biotin-huma7-5; parameters: species or system human
α7nAChR = biological target: T1, α7nAChR (Homo sapiens, UniProt P36544); test: α7nAChR binding assay: 125I-β-amyloid1-40 binding to α7SK-N-MC membranes (SPA); details: inhibition of 125I-β-amyloid1-40 (20 pM) binding to α7SK-N-MC membranes
T1 construct: expressed in transfected cells; host or cells: SK-N-MC (ATCC HTB-10), membranes
T1 sequence (P36544 23-502): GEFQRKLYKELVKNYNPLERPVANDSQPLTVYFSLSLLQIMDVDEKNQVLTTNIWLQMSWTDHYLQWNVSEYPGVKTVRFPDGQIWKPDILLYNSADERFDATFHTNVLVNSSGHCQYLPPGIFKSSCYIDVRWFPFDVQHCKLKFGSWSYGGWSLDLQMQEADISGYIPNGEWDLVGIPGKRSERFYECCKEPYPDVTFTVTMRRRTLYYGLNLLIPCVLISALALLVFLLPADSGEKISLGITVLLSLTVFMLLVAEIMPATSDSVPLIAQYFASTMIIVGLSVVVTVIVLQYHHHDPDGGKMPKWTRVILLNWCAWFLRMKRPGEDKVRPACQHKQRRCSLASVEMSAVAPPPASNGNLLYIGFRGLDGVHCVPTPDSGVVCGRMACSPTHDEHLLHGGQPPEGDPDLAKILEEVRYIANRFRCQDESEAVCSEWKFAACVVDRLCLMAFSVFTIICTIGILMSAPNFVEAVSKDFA
Description: α7nAChR (nicotinic acetylcholine receptor) binding assay: Membranes from recombinant SK-N-MC cells (ATCC#HTB-10) overexpressing α7nAChR (α7SK-N-MC) were prepared according to standard procedures (Wang et al, J. Biol Chem. 275, 5626-5632, 2000) except that the membranes were thoroughly washed. For each assay, membranes (20 μg) were precoupled to wheat germ agglutinin yittrium SPA beads (250 μg, Amersham) in 50 mM HEPES (pH 7.5) containing 0.01% BSA, 2 mM Mg^2+, 2 mM Ca^2+ and protease inhibitors (Boehringer Mannheim, Germany). […] At the end of the incubation (30 min), bound radioactivity was measured in a TopCount (Packard, Meriden, Conn.). Data were analyzed using Graphpad Prism software (Graphpad Software Incorporated).

[3] = tested on: guinea pig hippocampal synaptosomes; test: ACh release from guinea pig hippocampal synaptosomes (β-amyloid inhibition of K+-evoked release); format: cell-based; details: attenuation of β-amyloid's inhibition on potassium-evoked ACh release
Description: ACh release from guinea pig hippocampal synaptosomes: Synaptosomes (P2 fraction) were prepared from guinea pig hippocampus as described previously and re-suspended in a Krebs-Ringer solution containing 0.1 μM [methyl-^3H]choline chloride (NEN, Boston, Mass.) and incubated at 37° C. for 30 min. Unincorporated choline was removed by washing and the synaptosomes were resuspended in Krebs-Ringer solution to 10 mg/mL. ACh release from synaptosomes was measured using the parallel superfusion chambers (Hugo Sachs Elektronik, March-Hugstetten, Germany) according to that described earlier (Wang, H. -Y. et al Neuropeptides 1999; 33, 197-205). […]
The tissues were treated with peptides and ACh release was evoked by superfusing with 65 mM K^+-Krebs-Ringer (made by equimolar replacement of NaCl with KCl) for 30 seconds. […] The amount of ^3H in the superfusate samples was measured by liquid scintillation spectrometry.
Tritiurn efflux into the superfusate was calculated as the fraction of ^3H content in the synaptosomes at the onset of the respective collection period. […]
Data are expressed as the mean fractional ^3H release±S.E.M. Statistical differences between treatments were tested by Student's t test, two-tailed or the two-factor ANOVA as appropriate. Individual differences in the dose-response curve were evaluated by the Newman-Keuls multiple comparison test.

[4] = biological target: huma7 peptide / β-amyloid1-40 (Homo sapiens, UniProt P36544); test: Huma7 binding assay: 125I-β-amyloid1-40 binding to immobilized huma7 peptide
Sequence of huma7 peptide / β-amyloid1-40 (P36544 193-224): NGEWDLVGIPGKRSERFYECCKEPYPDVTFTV

[5] = first phase, read-out: Calculated EC50 for biphasic response, EC50 - 1
[6] = second phase, read-out: Calculated EC50 for biphasic response, EC50 - 2

Molecule | IC50 (Biotin-huma7-5 [1]) | EC50 (α7nAChR; [5]) | EC50 (α7nAChR; [6]) | other results
CC(C)C[C@H](NC(=O)[C@H](CCCCN)NC(=O)[C@H](CCC(N)=O)NC(=O)[C@H](Cc1c[nH]cn1)NC(=O)[C@H](Cc1c[nH]cn1)NC(=O)[C@@H](N)C(C)C)C(=O)N[C@H](C(=O)N[C@@H](Cc1ccccc1)C(=O)N[C@@H](Cc1ccccc1)C(=O)N[C@@H](C)C(=O)N[C@@H](CCC(=O)O)C(=O)N[C@@H](CC(=O)O)C(=O)N[C@H](C(=O)NCC(=O)N[C@@H](CO)C(=O)N[C@@H](CC(N)=O)C(=O)N[C@@H](CCCCN)C(=O)O)C(C)C)C(C)C [Aβ12-28] | 400 nM |  |  | 
Aβ42: β-amyloid peptide1-42 |  |  |  | % Inh @ 100 μM, Fluo-β-amyloid1-42 binding to Biotin-huma7-5 (Biotin-huma7-5 [2]; 100 μM, 100 nM Fluo-β-amyloid1-42, 1 hr at 25° C.): 85%
N[C@@H](Cc1ccc(O)cc1)C(=O)N1CCC[C@H]1C(=O)N[C@@H](Cc1c[nH]c2ccccc12)C(=O)N[C@@H](Cc1ccccc1)C(=O)O [YPWF peptide, YPWF] |  | 0.00351 nM | 20.3 nM | 
28 (ECCK) [compound 28] |  |  |  | ACh rel % Inh @ 100 μM [3]: 87%
α-bungarotoxin [α-BTX] | 100 nM |  |  | % Inh @ 100 μM, Fluo-β-amyloid1-42 binding to Biotin-huma7-5 (Biotin-huma7-5 [2]): 100%; inhibition of 125I-β-amyloid1-40 binding to immobilized huma7 [4]: can be inhibited
CCCN(CCC)C1Cc2c(O)ccc(O)c2CC1C (centres unmarked) [Inhibitor A] |  | 0.133 nM | 34700 nM | inhibition of 125I-β-amyloid1-40 binding to immobilized huma7 ([4]; 10 μM inhibitors, FIG. 2): can be inhibited
